# According to ChEMBL document CHEMBL5576098, “Synthesis and activity of benzimidazole N-Acylhydrazones against Trypanosoma cruzi, Leishmania amazonensis and Leishmania infantum” (Bioorg Med Chem Lett, 2024):
# Calls of active or inactive are those of the source. No cut-off for these calls is given here.
# Assays:
# [1] = tested on: Trypanosoma cruzi; test: Antitrypanosomal activity against bloodstream trypomastigote form of Trypanosoma cruzi Y measured after 24 hrs; format: functional, organism-based
# [2] = Cytotoxicity against non-infected mouse peritoneal macrophage cells measured after 24 hrs; format: toxicity, cell-based; conditions: non-infected peritoneal macrophages, read-out: LC50
# [3] = Selectivity index, ratio of LC50 for mouse peritoneal macrophage cells to IC50 for bloodstream trypomastigote form of Trypanosoma cruzi Y; format: toxicity; conditions: peritoneal macrophages, read-out: Ratio LC50/IC50
# [4] = tested on: Trypanosoma cruzi; test: Antitrypanosomal activity against Trypanosoma cruzi Tulahuen expressing beta-galactosidase gene infected in mouse L929 cells measured after 120 hrs; format: functional, organism-based; conditions: L929, 120 h
# [5] = tested on: Trypanosoma cruzi; test: Antitrypanosomal activity against tissue-culture derived trypomastigote form of Trypanosoma cruzi Y measured after 120 hrs; format: functional
# [6] = Cytotoxicity against mouse L929 cells assessed as inhibition of cell viability measured after 120 hrs; format: toxicity, cell-based
# [7] = Selectivity index, ratio of CC50 for mouse L929 cells to IC50 for Trypanosoma cruzi Tulahuen expressing beta-galactosidase gene infected in mouse L929 cells; format: toxicity, cell-based; conditions: read-out: Ratio CC50/IC50
# [8] = molecular target: Cruzipain (Trypanosoma cruzi) (UniProt P25779); test: Inhibition of Trypanosoma cruzi cruzain at 100 uM relative to control
# Sequence of Cruzipain (Trypanosoma cruzi) (P25779 123-467 limits assumed): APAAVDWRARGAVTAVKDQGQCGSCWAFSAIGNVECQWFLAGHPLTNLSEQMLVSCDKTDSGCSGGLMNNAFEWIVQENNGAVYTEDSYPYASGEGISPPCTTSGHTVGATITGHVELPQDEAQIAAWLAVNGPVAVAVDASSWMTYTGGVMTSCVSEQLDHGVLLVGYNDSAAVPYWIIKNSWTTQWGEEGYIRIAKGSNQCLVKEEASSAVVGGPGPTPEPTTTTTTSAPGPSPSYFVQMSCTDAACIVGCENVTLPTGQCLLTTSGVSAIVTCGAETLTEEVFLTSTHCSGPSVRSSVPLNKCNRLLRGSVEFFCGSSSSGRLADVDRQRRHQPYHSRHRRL
# [9] = tested on: Leishmania infantum; test: Antiparasitic activity against Leishmania infantum promastigotes infected in mouse RAW264.7 cells measured after 48 hrs; format: functional, organism-based; conditions: for IC50: RAW264.7, 48 h
# [10] = Selectivity index, ratio of CC50 for mouse RAW264.7 cells to IC50 for Leishmania infantum promastigotes infected in mouse RAW264.7 cells; format: toxicity, cell-based; conditions: read-out: Ratio CC50/IC50
# [11] = tested on: Leishmania infantum; test: Antiparasitic activity against Leishmania infantum amastigotes infected in mouse RAW264.7 cells measured after 48 hrs; format: functional, organism-based; conditions: for IC50: RAW264.7, 48 h
# [12] = Selectivity index, ratio of CC50 for mouse RAW264.7 cells to IC50 for Leishmania infantum amastigotes infected in mouse RAW264.7 cells; format: toxicity, cell-based; conditions: read-out: Ratio CC50/IC50
# [13] = Cytotoxicity against mouse RAW264.7 cells measured after 48 hrs; format: toxicity, cell-based
# [14] = tested on: Leishmania amazonensis; test: Antiparasitic activity against Leishmania amazonensis promastigotes infected in mouse RAW264.7 cells measured after 48 hrs; format: functional, organism-based
# [15] = tested on: Leishmania amazonensis; test: Antiparasitic activity against Leishmania amazonensis amastigotes infected in mouse RAW264.7 cells measured after 48 hrs; format: functional, organism-based; conditions: for IC50: RAW264.7, 48 h
# [16] = Selectivity index, ratio of CC50 for mouse RAW264.7 cells to IC50 for Leishmania amazonensis amastigotes infected in mouse RAW264.7 cells; format: toxicity, cell-based; conditions: read-out: Ratio CC50/IC50
# [17] = tested on: Leishmania infantum; test: Antiparasitic activity against Leishmania infantum; format: functional, organism-based
# [18] = tested on: Trypanosoma cruzi; test: Potency index, ratio of benznidazole IC50 to test compound IC50 for antitrypanosomal activity against Trypanosoma cruzi Tulahuen expressing beta-galactosidase gene infected in mouse L929 cells measured after 120 hrs; format: functional
SMILES,IC50 [1],IC50 [4],LC50 [5],CC50 at 120 h [6],selectivity ratio [7],inhibition [8],IC50 [11],selectivity ratio [12],CC50 at 48 h [13],Activity [14],IC50 [15],selectivity ratio [16],Activity [9],further results
COc1ccc(/C=N/NC(=O)c2nc3ccccc3[nH]2)cc1O,123 µM,24.8 µM,203 µM,153 µM,6.2,58%,52.5 µM,1.7,88.9 µM,inactive,136 µM,0.7,,CC50 at 24 h [2]: 120 µM; selectivity ratio [3]: 1; IC50 [9]: 191 µM; selectivity ratio [10]: 0.5
COc1ccc(/C=N/NC(=O)c2nc3ccccc3[nH]2)cc1,207 µM,80.5 µM,472 µM,170 µM,2.1,22%,36.7 µM,5.1,188 µM,inactive,35 µM,5.4,inactive,CC50 at 24 h [2]: > 500 µM
O=C(N/N=C/c1ccc2c(c1)OCO2)c1nc2ccccc2[nH]1,> 500 µM,105 µM,,148 µM,1.4,47%,,,30.1 µM,inactive,45.1 µM,0.7,inactive,Activity [11]: inactive
O=C(N/N=C/c1ccc(Cl)cc1)c1nc2ccccc2[nH]1,> 500 µM,14.7 µM,,51.9 µM,3.5,3%,28.4 µM,0.4,12.4 µM,inactive,,,,IC50 [9]: > 335 µM; Activity [15]: inactive
O=C(N/N=C/c1ccc(F)cc1)c1nc2ccccc2[nH]1,> 500 µM,230 µM,633 µM,354 µM,1.5,17%,18.4 µM,3.1,57.8 µM,inactive,> 354 µM,,inactive,
COc1cc(/C=N/NC(=O)c2nc3ccccc3[nH]2)cc(OC)c1OC,> 500 µM,35.6 µM,343 µM,203 µM,5.7,6%,> 282 µM,,42.3 µM,,148 µM,0.3,inactive,"IC50 ([14]; RAW264.7, 48 h): > 282 µM"
O=C(N/N=C/c1cccs1)c1nc2ccccc2[nH]1,> 500 µM,91.7 µM,416 µM,170 µM,1.9,24%,48.8 µM,2.7,131 µM,inactive,61.4 µM,2.1,inactive,
COc1cc(/C=N/NC(=O)c2nc3ccccc3[nH]2)cc([N+](=O)[O-])c1O,> 500 µM,104 µM,369 µM,124 µM,1.2,45%,,,84.4 µM,inactive,,,inactive,Activity [11]: inactive; Activity [15]: inactive
CCCn1c(NC(=O)Cc2ccc(Cl)cc2)nc2ccccc21,,,,,,,,,,,,,,IC50 [17]: 12 µM
O=C(N/N=C/c1ccc([N+](=O)[O-])o1)c1nc2ccccc2[nH]1,304 µM,0.033 µM,15 µM,257 µM,7680,18%,61.8 µM,0.4,25.7 µM,inactive,18.4 µM,1.4,,CC50 at 24 h [2]: > 500 µM; selectivity ratio [3]: > 1.6; IC50 [9]: 28.7 µM; selectivity ratio [10]: 0.9; Ratio IC50 [18]: 46
O=C(N/N=C/c1ccc(Br)cc1)c1nc2ccccc2[nH]1,> 500 µM,7.3 µM,,49.8 µM,6.8,3%,,,8.6 µM,inactive,,,inactive,Activity [11]: inactive; Activity [15]: inactive
